The record followed here is US20170291905A1, “ARGININE […] INHIBITORS AND USES THEREOF” (Epizyme, Inc., priority 2014, published 2017).

SMILES strings stand for the structures.

As a reminder, the IC50 is the midpoint of a concentration-inhibition curve.

The experiment deals with full-length human PRMT6 (Flag- and His-tagged) (Homo sapiens, UniProt Q96LA8). Put plainly: PRMT6 biochemical assay (3H-SAM Flashplate, histone H4 36-50 K44me1 peptide). Conditions: 1 nM PRMT6, 30 min preincubation, 75 nM peptide. The essentials: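 Flag/His-tagged full-length PRMT6 (1 nM) pre-incubated 30 min RT with compound in 20 mM Bicine pH 7.6, then given 200 nM 3H-SAM, 250 nM cold SAM and 75 nM biotinylated H4 36-50 K44me1 peptide. Methylated peptide captured on streptavidin Flashplates and counted; % inhibition versus DMSO and 1 mM SAH controls, fitted to 3- or 4-parameter curves.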
full-length human PRMT6 (Flag- and His-tagged), sequence (Q96LA8 with tags, fused parts or gaps): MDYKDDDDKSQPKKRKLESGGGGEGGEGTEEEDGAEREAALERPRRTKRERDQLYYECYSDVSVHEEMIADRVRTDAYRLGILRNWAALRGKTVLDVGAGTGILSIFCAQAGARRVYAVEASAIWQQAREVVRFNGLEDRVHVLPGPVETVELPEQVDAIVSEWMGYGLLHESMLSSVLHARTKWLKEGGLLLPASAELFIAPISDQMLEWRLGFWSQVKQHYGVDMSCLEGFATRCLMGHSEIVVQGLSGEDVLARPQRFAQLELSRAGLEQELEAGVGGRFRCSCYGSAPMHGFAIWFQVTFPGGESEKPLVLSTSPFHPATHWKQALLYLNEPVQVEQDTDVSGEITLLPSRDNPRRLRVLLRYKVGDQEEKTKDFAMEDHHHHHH
In turn, `CC[C@H]1CC[C@@H](c2n[nH]cc2CN(C)CCNC)CC1` [compound 1] gave a 50% inhibitory concentration (IC50) of 10.2 nM. As for `CCOCCOCC1(COCCOCC)CCC(c2n[nH]cc2CN(C)CCNC)CC1` [compound 39, N1-((3-(4,4-bis((2-ethoxyethoxy)methyl)cyclohexyl)-1H-pyrazol-4-yl)methyl)-N1,N2-dimethylethane-1,2-diamine], the figure is 42 nM; as for `CNCCN(C)Cc1c[nH]nc1C1CCC(COCCC2CCOCC2)(COCCC2CCOCC2)CC1` [compound 40], 37.4 nM. As for `CNCCN(C)Cc1c[nH]nc1C1CCC(COCC2CC2)(COCC2CC2)CC1` [compound 41, N1-((3-(4,4-bis((cyclopropylmethoxy)methyl)cyclohexyl)-1H-pyrazol-4-yl)methyl)-N1,N2-dimethylethane-1,2-diamine], the figure is 6.94 nM; as for `CN(C)CCN(C)Cc1c[nH]nc1[C@H]1CC[C@@]2(CC1)CC(C)(C)CO2` [compound 42, N1-((3-((5S,8S)-3,3-dimethyl-1-oxaspiro[4.5]decan-8-yl)-1H-pyrazol-4-yl)methyl)-N1,N2,N2-trimethylethane-1,2-diamine], 90.9 nM; as for `CN(C)CCN(C)Cc1c[nH]nc1[C@H]1CC[C@]2(CC1)CC(C)(C)CO2` [compound 43, N1-((3-((5r,8r)-3,3-dimethyl-1-oxaspiro[4.5]decan-8-yl)-1H-pyrazol-4-yl)methyl)-N1,N2,N2-trimethylethane-1,2-diamine], 288 nM. `CNCCN(C)Cc1c[nH]nc1C1CCC(CO)(CO)CC1` [compound 44, (4-(4-((methyl(2-(methylamino)ethyl)amino)methyl)-1H-pyrazol-3-yl)cyclohexane-1,1-diyl)dimethanol] returned an IC50 of 21.5 nM.

In turn, `CNCCN(C)Cc1c[nH]nc1C1CCC(COC)(COCC2CCOCC2)CC1` (stereo not drawn) [compound 45] yielded an IC50 of 53.7 nM.

`CNCCN(C)Cc1c[nH]nc1C1=CCC2(CC1)CC(C)(C)CO2` (stereo not drawn) [compound 46, N1-((3-(3,3-dimethyl-1-oxaspiro[4.5]dec-7-en-8-yl)-1H-pyrazol-4-yl)methyl)-N1,N2-dimethylethane-1,2-diamine] yielded an IC50 of 59.7 nM. Turning to `CCC1(CC)C[C@]2(CC[C@H](c3n[nH]cc3CN(C)CCNC)CC2)NC1=O` [compound 47, (5s,8s)-3,3-diethyl-8-(4-((methyl(2-(methylamino)ethyl)amino)methyl)-1H-pyrazol-3-yl)-1-azaspiro[4.5]decan-2-one], the IC50 is 15.8 nM.

As for `CCC1(CC)C[C@]2(CC[C@@H](c3n[nH]cc3CN(C)CCNC)CC2)NC1=O` [compound 48, (5r,8r)-3,3-diethyl-8-(4-((methyl(2-(methylamino)ethyl)amino)methyl)-1H-pyrazol-3-yl)-1-azaspiro[4.5]decan-2-one], 73.6 nM corresponded to half-maximal inhibition (IC50). Under `CNCCN(C)Cc1ccnn1[C@H]1CC[C@@]2(CC1)CC(C)(C)CO2` [compound 49, N1-((1-((5s,8s)-3,3-dimethyl-1-oxaspiro[4.5]decan-8-yl)-1H-pyrazol-5-yl)methyl)-N1,N2-dimethylethane-1,2-diamine] stands 128 nM.
